Experimental data as given in patent publication US20140350078A1, “CONTROLLING REGULATORY T CELL FUNCTION” (NEW YORK UNIVERSITY, priority 2011, published 2014).

Columns and labels:
[1] = tested on: Treg suppressive function; experiment: In vitro suppression assay (Tregs co-cultured with CD4+CD25- T cells at 1:3); format: cell-based, human; conditions: pre-treatment of Treg at 1 μM for 30 minutes, supernatants after 48 hours
Description: In Vitro Suppression Assays—CD4^+CD25^+ T cells were treated or not, washed, and added at a ratio of 1:3 ([…]) to CD4^+CD25^− T cells at final concentration of 2×10^6 per mL (cytokine secretion) or 2×10^5 per mL (proliferation). The cells were co-cultured on anti-CD3 mAb (5 μg/mL) pre-coated 24-well plates for 24-48 hours (cytokine secretion) or 96 hours (proliferation). Human TNF-α (210-TA) was purchased from R&D Systems and added to co-cultures where indicated. […] Cytokine secretion was determined by ELISA as described (Zanin-Zhorov et al., “Protein Kinase C-Theta Mediates Negative Feedback on Regulatory T Cell Function,” Science 328:372-376 (2010), which is hereby incorporated by reference in its entirety), using human IFN-γ Cytoset (Biosource) and IL-17 and -4 (Invitrogen). Proliferation was assessed by carboxyfluorescein diacetate succinimidyl ester (CFSE) dilution as described (Tran et al., “Analysis of Adhesion Molecules, Target Cells, and Role of IL-2 in Human FOXP3+ Regulatory T Cell Suppressor Function,” J. Immunol. 182:2929-2938 (2009), which is hereby incorporated by reference in its entirety).

Foxp3 = conditions: literature (Valencia et al.; Zanin-Zhorov et al.); cited from earlier work
[2] = tested on: Dlgh1 recruitment to the IS in Tregs; experiment: Dlgh1 recruitment to the immunological synapse on planar lipid bilayers, imaged by TIRFM; format: cell-based, human; conditions: Tregs from healthy donors, 50 ng/mL overnight
Description: Planar lipid bilayers containing anti-CD3 antibodies (5 μg/mL) and ICAM-1 (250 molecules per mm^2) were prepared in parallel-plate flow cells as described (Zanin-Zhorov et al., “Protein Kinase C-Theta Mediates Negative Feedback on Regulatory T Cell Function,” Science 328:372-376 (2010), which is hereby incorporated by reference in its entirety). The flow cell containing the bilayers was warmed up to 37° C.; cells were injected in 500 μL of Hepes-buffered saline containing 1% human serum albumin; and images were collected on a custom automated Nikon inverted fluorescence microscope.
All TIRF imaging was performed on the custom automated Nikon inverted fluorescence microscope using the 100×/1.45 N.A. TIRF objective from Nikon. […]
The pro-inflammatory mediator TNF-α inhibits suppressive activity and down-regulates Foxp3 in human Treg (Valencia et al., “TNF Downmodulates the Function of Human CD4+CD25hi T-Regulatory Cells,” Blood 108(1):253-261 (2006); Zanin-Zhorov et al., “Protein Kinase C-Theta Mediates Negative Feedback on Regulatory T Cell Function,” Science 328(5976):372-376 (2010), both of which are hereby incorporated by reference in their entirety). To investigate whether Dlgh1 recruitment to IS correlates with suppressive function of Treg, Treg was incubated with TNF-α overnight and then analyzed Dlgh1 recruitment to the IS as described above. […]

[3] = tested on: Treg suppressive function; conditions: literature (Valencia et al.; Zanin-Zhorov et al.); cited from earlier work

Row | Compound | ability of Treg to suppress IFN-γ secretion from CD4+CD25- T cells [1] | Foxp3 in human Treg (Foxp3) | levels of Dlgh1 at IS in Tregs [2] | suppressive activity of human Treg [3]
1 | C[S+]([O-])c1ccc(-c2nc(-c3ccncc3)c(-c3ccc(F)cc3)[nH]2)cc1 (stereo not shown) [SB203580] | significantly down-regulated |  |  | 
2 | TNF-α |  | down-regulates | significantly reduced | inhibits
